The text below walks through data of publication PMC6735331, “Competitive α-glucosidase inhibitors, dihydrobenzoxanthones, from the barks of Artocarpus elasticus” (Journal of Enzyme Inhibition and Medicinal Chemistry, 2019).

In assay [1] the target is T1, α-glucosidase (EC3.2.1.20) (Saccharomyces cerevisiae, UniProt P53341).
T1 construct: purchased Sigma Aldrich
The assay can be described thus: biochemical. As to the method: The inhibitory activity of α-glucosidase (EC3.2.1.20) was carried out with a few changes from literature reported method, using p-nitrophenyl-α-D-glucopyranoside at optimal pH of 6.8 (50 mM phosphate buffer)[3]. Inhibitors were dissolved and diluted to a needed concentration in DMSO. […] The absorbance of formed p-nitrophenol immediately measured with a wavelength of 405 nm at 37 °C. […] Calculation of the % of inhibition was as follows: (1) Activity (%)=100[1+([I]/IC50)]

In assay [2] the target is T1, α-glucosidase (EC3.2.1.20). The assay can be described thus: α-Glucosidase enzyme kinetics (Lineweaver–Burk, Dixon plots, secondary plots, Yang's method). The format is biochemical. Set-up: Vmax: unit not given here. The note with it: for Kik/Kiv: Yang's method; for Kinetic mode: double reciprocal (Lineweaver–Burk) plots; for KIS: inhibitor binding with enzyme-substrate complex, secondary plots of intercepts. As to the method:
Similarly, the enzyme kinetic modes were clarified using a different p-nitrophenyl-α-D-glucopyranoside substrate (0, 0.5, 1, and 2 mM) and inhibitors concentrations. Analysis of the data used to determine the individual parameters of curves was prepared in the nonlinear regression program Sigma Plot (SPCC Inc., Chicago, IL, USA). The kinetic parameters, Michaelis–Menten (Km) and maximum velocity (Vmax), were found using Lineweaver–Burk plots. The dissociation constants between inhibitor and enzyme (Ki) were found from Dixon plots. Two inhibition constants for inhibitor binding with either free or enzyme-substrate complex, KI or KIS, were calculated from secondary plots of the slopes of the straight lines or vertical intercept (1/ Vmaxapp ), respectively, verse the concentration of inhibitors by Equations (2)–(4). Kik and Kiv rate constants were calculated according to Equations (5) and (6) proposed by Yang et al.[20]: (2) 1/V=Km/Vmax(1 + [I]/KI)1/S + 1/Vmax (3) Slope =Km/KIVmax[I] +Km/Vmax (4) Intercept = 1/KISVmax[I] +[…] (5) Km=Km0× (1 + [I]/Kik) (6) Vm=Vm0× (1 + [I]/Kiv)

In assay [3] the target is T2, α-glucosidase (Saccharomyces cerevisiae, UniProt P53341).
T2 construct: purchased Sigma Aldrich
The assay can be described thus: Binding affinity measurement by fluorescence quenching (Stern–Volmer). The note with it: for KSV: Stern–Volmer constant. As to the method: 180 µL of 50 mM phosphate buffer (pH 6.8) with 10 µL of 0.2 unit/mL α-glucosidase were added into the 96-well black immuno-plates then 10 µL different concentrations (2–32 µM) of inhibitor were added. Fluorescent emission spectra were recorded from 300 to 400 nm, emission slits adjusted to 2.0 nm, and the excitation was 250 nm, using spectrophotometer (SpectraMax M3). There was no significant emission from any ingredient in the assay system under given experimental conditions (i.e. emission from 300 to 400 nm). A level of affinity was expressed with KSV, which was analysed using the Stern–Volmer equation: (12) […]=1+KSV[Qf] where F0 and F are the fluorescence intensities in the absence and presence of a quencher. Qf is a concentration of compounds.

In assay [4] the target is T2, α-glucosidase. Description: Progress curves and time-dependent (slow-binding) assay. Format: biochemical. The method, then:
Time-dependent assays of inhibitors at the different preincubation time (0, 15, 30, 45, 60 and 80 min) were accomplished using 0.05 unit/mL final concentration of α-glucosidase and p-nitrophenyl-α-D-glucopyranoside substrate (1 mM) in 50 mM phosphate buffer (pH 6.8) at 37 °C[21]. The progress curves were monitored every 30 s for 30 min. Furthermore, to clearly understand the time-dependent inhibition mode of α-glucosidase, inhibitors were assayed using different concentrations. Accordingly, the progress curves were calculated using Equations (7)–(11). Analysis of the data was prepared by the nonlinear regression program Sigma Plot (SPCC Inc., Chicago, IL, USA): (7) [P]t/[E]= vst+ vi−vs/kobs(1−e^−kobst) where [P]t is the concentration of product formed and [E] is the total enzyme concentration. (8) v/v0= exp (−kobst) (9) Enz+I⇄k4k3Enz−I (10) kobs=k4(1+[I]/Kiapp) (11) Kiapp=k4/k3

Assay [5] concerns the target T1, α-glucosidase (EC3.2.1.20). Description: α-Glucosidase enzyme kinetics (Lineweaver–Burk, Dixon plots, secondary plots, Yang's method). Format: biochemical. The note with it: enzyme activity vs. enzyme concentration at different inhibitor concentrations.
The mark [6] stands for this setting: p-NPG substrate, 50 mM phosphate buffer pH 6.8, 37 °C, read-out: IC50.
Setting [7] is: from Dixon plots, read-out: Ki (inhibition constant).
Setting [8] is: fluorescence quenching, read-out: KA (converted).
[9] abbreviates: slow-binding fit, Equations (10) and (11).

“Also recorded” adds a separate entry of the source. Read-outs that look alike come from different tables or passages of the source.

T1 sequence (P53341 whole entry): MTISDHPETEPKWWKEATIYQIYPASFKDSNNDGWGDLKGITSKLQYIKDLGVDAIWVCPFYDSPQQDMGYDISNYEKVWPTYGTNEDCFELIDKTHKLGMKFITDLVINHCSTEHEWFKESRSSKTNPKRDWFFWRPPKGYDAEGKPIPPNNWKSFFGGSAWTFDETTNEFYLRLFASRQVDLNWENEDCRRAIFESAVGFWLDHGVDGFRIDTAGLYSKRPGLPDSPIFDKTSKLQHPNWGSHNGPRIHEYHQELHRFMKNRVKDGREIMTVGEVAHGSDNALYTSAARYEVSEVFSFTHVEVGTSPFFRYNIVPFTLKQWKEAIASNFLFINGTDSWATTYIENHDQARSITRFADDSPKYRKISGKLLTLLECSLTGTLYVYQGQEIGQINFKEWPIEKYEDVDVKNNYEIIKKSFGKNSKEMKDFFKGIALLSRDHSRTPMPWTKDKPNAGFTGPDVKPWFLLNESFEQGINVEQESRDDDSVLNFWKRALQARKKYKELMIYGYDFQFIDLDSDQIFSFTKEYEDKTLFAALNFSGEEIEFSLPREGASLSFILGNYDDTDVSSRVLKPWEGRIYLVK
T2 sequence (P53341 whole entry): as above

In general, IC50 refers to the concentration that inhibits the measured activity by half. For the compound `C=C(C)[C@H]1Cc2c(oc3c4c(cc(O)c3c2=O)OC(C)(C)C=C4)-c2c(O)cc(O)c(O)c21` [Compound 2, artobiloxanthone], in assay [1] (setting [6]), the half-maximal inhibitory concentration (IC50) stood at 8.6 ± 0.5 µM. The figures for the Vmax in assay [2] ([I] 7.5 μM), in assay [2] ([I] 15.0 μM) and in assay [2] ([I] 30.0 μM) were 9.7056, 9.6712 and 9.8012, respectively. The values for the Kik/Kiv in assay [2] ([I] 7.5 μM), in assay [2] ([I] 15.0 μM) and in assay [2] ([I] 30.0 μM) were 76.6587, 102.4604 and 209.3396, respectively. Besides, the Kinetic mode entry in assay [2] is on record as “Competitive”. For the same compound, in assay [2] (setting [7]), the Ki was 5.1 µM. Further, the KSV at α-glucosidase [3] (pH 6.8, 37 °C) was 1.53 ×10^5 L·mol^–1. Also, on α-glucosidase [3] (setting [8]), the Kd is 1.32 µM.

As to `CC1(C)Oc2c(O)cc(O)c3c2C1Cc1c-3oc2cc(O)cc(O)c2c1=O` (centres unmarked) [Compound 3, artoindonesianin P], the 50% inhibitory concentration (IC50) in assay [1] (setting [6]) is 25.4 ± 0.7 µM. In addition, the Vmax in assay [2] ([I] 17.5 μM) is 6.6800; in assay [2] ([I] 35 μM), 6.7889; in assay [2] ([I] 70 μM), 6.7204. The figures for the Kik/Kiv in assay [2] ([I] 17.5 μM), in assay [2] ([I] 35 μM) and in assay [2] ([I] 70 μM) were 23.8593, 31.6240 and 75.7804, respectively. Moreover, the Kinetic mode entry in assay [2] was “Competitive”. For the same compound, the Ki in assay [2] (setting [7]) is 12.6 µM. Further, the KSV at α-glucosidase [3] is 0.51 × 10^5 Lmol^−1; on α-glucosidase [3] (pH 6.8, 37 °C) it was 0.51 ×10^5 L·mol^–1. Besides, the Kd on α-glucosidase [3] (setting [8]) was 1.75 µM.

Take `C=C(C)C1Cc2c(oc3cc(OC)cc(O)c3c2=O)-c2c(O)cc(O)c(O)c21` (centres unmarked) [Compound 1, 1,3,4,8-tetrahydroxy-10-methoxy-5-(prop-1-en-2-yl)-5,6-dihydro-benzo[c]xanthen-7-one]: in assay [1] (setting [6]), the half-inhibitory concentration (IC50) worked out at 7.6 ± 0.2 µM. For the same compound, the Vmax in assay [2] ([I] 4.0 μM) was 6.30; in assay [2] ([I] 8.0 μM) it was 6.50; in assay [2] ([I] 16.0 μM), 7.55. The Kik/Kiv came out at 55.80 in assay [2] ([I] 4.0 μM), 48.88 in assay [2] ([I] 8.0 μM) and 29.79 in assay [2] ([I] 16.0 μM). Moreover, the Kinetic mode entry in assay [2] is “Competitive”. In addition, the Ki in assay [2] (setting [7]) stood at 2.9 µM; at α-glucosidase [4] (slow-binding fit, Kiapp = k4/k3), 0.38 µM. Besides, the Time-dependent inhibition mode result on α-glucosidase [4] (preincubation time dependence, kobs vs [I]) was “competitive and reversible simple slow-binding; also recorded: slow-binding inhibitor”. Moreover, the k3 at α-glucosidase [4] (setting [9]) is 728 M⁻¹ s⁻¹. The k4 at α-glucosidase [4] (setting [9]) worked out at 0.0166 min⁻¹. Besides, the KSV was 1.84 × 10^5 Lmol^−1 on α-glucosidase [3] and 1.84 ×10^5 L·mol^–1 on α-glucosidase [3] (pH 6.8, 37 °C). For the same compound, at α-glucosidase [3] (setting [8]), the Kd is 1.27 µM. Besides, the Reversibility of inhibition entry in assay [5] is “reversible inhibitor”.

Turning to `CC1(C)C=Cc2c(cc(O)c3c(=O)c4c(oc23)-c2c(O)cc(O)c3c2C(C4)C(C)(C)O3)O1` (centres unmarked) [Compound 4, cycloartobiloxanthone], the half-maximal inhibitory concentration (IC50) in assay [1] (setting [6]) was determined as 9.6 ± 0.6 µM. Moreover, the values for the Vmax in assay [2] ([I] 7.5 μM), in assay [2] ([I] 15.0 μM) and in assay [2] ([I] 30.0 μM) were 6.3816, 7.3692 and 7.4627, respectively. For the same compound, the Kik/Kiv was found to be 16.6987 in assay [2] ([I] 7.5 μM), 11.4837 in assay [2] ([I] 15.0 μM) and 20.2662 in assay [2] ([I] 30.0 μM). Also, the Kinetic mode entry in assay [2] is reported as “Competitive”. Further, the Ki in assay [2] (setting [7]) came out at 5.8 µM. In addition, the KSV on α-glucosidase [3] (pH 6.8, 37 °C) is recorded as 1.29 ×10^5 L·mol^–1. The Kd at α-glucosidase [3] (setting [8]) is 1.27 µM.

In the case of `CC(C)=CCc1c(-c2cc(O)c(O)cc2O)oc2c3c(cc(O)c2c1=O)OC(C)(C)C=C3` [Compound 6, artonin E], half-maximal inhibition in assay [1] (IC50) required 16.2 ± 0.8 µM. Also, the Ki was 15.4 µM in assay [2] (KI, inhibitor binding with free enzyme, secondary plots of slopes) and 15.8 µM in assay [2] (Ki (inhibition constant), from Dixon plots). Further, the Vmax in assay [2] ([I] 7.5 μM) was 5.0352; in assay [2] ([I] 15.0 μM), 4.2992; in assay [2] ([I] 30.0 μM) it was 3.6219. Further, the Kik/Kiv is reported as 3.7049 in assay [2] ([I] 7.5 μM), 2.5098 in assay [2] ([I] 15.0 μM) and 1.8101 in assay [2] ([I] 30.0 μM). Besides, the Kinetic mode result in assay [2] is listed as “Mixed type I”. Moreover, in assay [2], the KIS is 51.7 µM. The Kd on α-glucosidase [3] was 1.28 µM. The KSV at α-glucosidase [3] is 0.93 × 10^5 Lmol^−1; at α-glucosidase [3] (pH 6.8, 37 °C), 0.93 ×10^5 L·mol^–1.

For `CC(C)=CCCC1(C)C=Cc2c(cc(O)c3c(=O)c(CC=C(C)C)c(-c4cc(O)c(O)cc4O)oc23)O1` (single isomer, unassigned; (-)) [Compound 5, (-)-2-(2,4,5-trihydroxyphenyl)-3-(3-methyl-2-buten-1-yl)-5-hydroxy-8-methyl-8-(4-methyl-3-penten-1-yl)-4H,8H-benzo[1,2-b:3,4-b']dipyran-4-one], the IC50 in assay [1] (setting [6]) was determined as 8.8 ± 0.3 µM. Moreover, the Vmax in assay [2] ([I] 7.5 μM) is on record as 4.74; in assay [2] ([I] 15.0 μM), 3.67; in assay [2] ([I] 30.0 μM) it was 2.79. The figures for the Kik/Kiv in assay [2] ([I] 7.5 μM), in assay [2] ([I] 15.0 μM) and in assay [2] ([I] 30.0 μM) were 3.79, 3.18 and 3.25, respectively. In assay [2], the Kinetic mode entry is recorded as “Mixed type I”. In assay [2], the KIS stood at 20.4 µM. For the same compound, the Ki in assay [2] (inhibitor binding with free enzyme, secondary plots of slopes, read-out: KI) came out at 5.4 µM. The KSV at α-glucosidase [3] (pH 6.8, 37 °C) is 1.63 ×10^5 L·mol^–1. For the same compound, the Kd on α-glucosidase [3] (setting [8]) was 1.23 µM.
